Experimental data as given in publication PMC5884648, “Relationship between the agonist activity of synthetic ligands of TRAIL-R2 and their cell surface binding modes” (Oncotarget, 2018).
*1 amine or outer side, *2 acyl side, *3 side chain or, on linkers, in order; H or OH if unused. Where a SMILES comes first, the peptide text is derived from it. Bridges are numbered along the chain shown (N, C = ends). Roman numbers before positions name the chains, in order. The star is where a group is joined. X1 = CN(CCCC(=O)NC(CCC(=O)[*:1])CCC(=O)[*:2])C(=O)c1ccccc1-c1c2ccc(=N)c(S(=O)(=O)O)c-2oc2c(S(=O)(=O)O)c(N)ccc12; X3 = N=c1ccc2c(-c3cc(C(=O)*)ccc3C(=O)O)c3ccc(N)c(S(=O)(=O)O)c3oc-2c1S(=O)(=O)O; X2 = NC(CCC(=O)[*:1])CCC(=O)[*:2]

Tests used:
[1] = system: HCT116 cells; experiment: Cell viability MTS assay, HCT116; format: cell-based, human; conditions: 24 hours
Description: (§1) BJAB, Jurkat and HCT116 cells (10^5 cells/well) were cultured in 100 µL of culture medium in 96-flat bottom well plates. The next day, cells were treated with the indicated concentrations of the different TRAILmin/DR5 peptides. After 24 hours of treatment cell viability measurement was performed by the MTS assay according to the manufacturer specification (Promega Corporation, Madison, WI, USA).

[2] = molecular target: T1, human TRAIL-R2 (Homo sapiens, UniProt O14763); experiment: Surface plasmon resonance on sensor-immobilized TRAIL-R2; format: binding; conditions: for koff / kon: SPR, 25° C, Langmuir model
T1 construct: purchased Enzo Life Sciences
T1 sequence (O14763 56-440): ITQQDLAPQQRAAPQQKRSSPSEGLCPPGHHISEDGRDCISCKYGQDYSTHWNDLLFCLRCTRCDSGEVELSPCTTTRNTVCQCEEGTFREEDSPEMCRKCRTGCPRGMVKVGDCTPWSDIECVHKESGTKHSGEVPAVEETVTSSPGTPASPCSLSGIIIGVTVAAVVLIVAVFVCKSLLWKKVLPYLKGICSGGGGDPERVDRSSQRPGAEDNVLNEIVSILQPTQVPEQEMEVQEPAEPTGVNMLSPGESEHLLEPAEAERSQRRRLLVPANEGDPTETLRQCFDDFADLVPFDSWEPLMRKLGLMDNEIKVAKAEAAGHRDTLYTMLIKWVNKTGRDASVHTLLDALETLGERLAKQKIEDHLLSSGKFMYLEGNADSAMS
Description: SPR assays were performed on a Biacore T200™, at 25° C. The running buffer was HBS-EP [10 mM HEPES (pH 7.4) containing 0.15 M NaCl, 3.4 mM EDTA and 0.005% (v/v) Tween P20]. The human TRAIL-R2 (Enzo Life Sciences, Farmingdale, NY, USA) receptor was immobilized on a sCM5 sensor chip (GE Healthcare) using the standard amine coupling procedure. The receptors were diluted in 10 mM acetate buffer (pH 5.0) at a concentration of 5 μg/mL. The TRAIL-R2 immobilization level on the sensor chip was 430 RU. Peptides were injected at a flow rate of 5 μL/min for 120 s and allowed to dissociate for an additional 420 s. Surfaces were then regenerated for 5 s with 25 mM HCl. All binding curves were double-referenced (i.e. subtraction of the data of the empty flow cell followed by the subtraction of the data from a running buffer injection cycle).
(§2) Double-referenced SPR binding curves sets were fitted globally using the BIAevaluation 4.1.1 (GE Healthcare Biacore) or TraceDrawer (Ridgeview Diagnostics AB, Uppsala, Sweden) softwares. The signal recorded with the LigandTracer on an empty spot or slide was subtracted from that recorded on cell-carrying slides. The resulting binding curves were analyzed by kinetic distribution analysis using the tool Interaction Map (Ridgeview Diagnostics AB, Uppsala, Sweden). Interaction Map decomposes the kinetic curve recorded for the binding of a homogeneous ligand to a heterogeneous group of targets into its different components. Results are represented as interaction maps (kon versus koff, log scale), where the color of each populated area represents its degree of contribution to the kinetic curve (red = high contribution, blue = low contribution).

[3] = system: Jurkat cells; experiment: Cell viability MTS assay, Jurkat; format: cell-based, human; conditions: 24 hours
Description: as §1

[4] = system: BJAB cells; experiment: Cell viability MTS assay, BJAB; format: cell-based, human; conditions: 24 hours
Description: as §1

[5] = molecular target: TRAIL-R2 expressed on BJAB cells (Homo sapiens, UniProt O14763); experiment: LigandTracer real time binding on living BJAB cells; parameters: expressed in transfected cells
TRAIL-R2 expressed on BJAB cells, sequence (O14763 56-440): as above
Description: The adherent cells HCT116-TRAIL-R2-DEF and HCT116 cells were directly plated on glass slides (Ø20 mm) (10^6 cells/well). The cells in suspension (BJAB and BJAB-TRAIL-R2-DEF) were covalently adhered to glass slides coated with poly-L-lysine (0.1% v/v) (Sigma Aldrich, Saint Louis, MO, USA). The adhesion was strong enough for measurement during 10h. After 24 hours, the slides were fixed with superglue at different locations of a Petri dish, which was inserted in the LigandTracer Green instrument (Ridgeview Instrument AB, Uppsala, Sweden). An empty spot or empty glass slide fixed to the Petri dish was used to record the background signal. This set-up allowed the simultaneous monitoring of the binding of a given peptide to different cell-carrying glass slides fixed to the dish. Three mL of solution (culture medium without or with fluorescent peptide) were added to the dish. In the LigandTracer instrument, the dish is tilted and rotates. Consequently the 3 mL solution covers only the lower part of the dish and each cell-carrying slide is alternatively in contact and out of contact with the solution (at intervals of 8 to 16 s). The fluorescence signal is recorded over time when the slide is out of the solution, and therefore corresponds to the amount of bound peptide. The solution in the dish was initially the culture medium (∼30 min) to provide a stable base line. The fluorescent peptide was then added in increasing doses (10, 30 and 90 nM) every two to three hours. Finally the peptide-containing sample was replaced with fresh medium and the dissociation of the peptide from the cells was followed overnight. The measurements were conducted at room temperature (approximately 20° C).
as §2

[6] = molecular target: T2, TRAIL-R2 on BJAB cells (Homo sapiens, UniProt O14763); experiment: Flow cytometry staining with fluorescent peptides, BJAB; format: binding
T2 construct: expressed in transfected cells
T2 sequence (O14763 56-440): as above
Description: (§3) 10^6 cells were washed in PBS containing 2% FCS and then incubated at 4° C for 30 min with an anti-TRAIL-R2 antibody (clone BK9 Diaclone, Besançon, France) according to concentration recommended by the manufacturer or with fluorescent peptides at the concentration of 1 µM. After two washes in PBS-2% FBS, TRAIL-R2 expression was monitored by flow cytometry (Guava easyCyte™, Merck Milipore, Darmstadt, Germany) and data were analyzed with InCyte Software (Merck Milipore).

[7] = molecular target: T3, TRAIL-R2 on HCT116 cells (Homo sapiens, UniProt O14763); experiment: Flow cytometry staining with fluorescent peptides, HCT116; format: binding
T3 construct: we used BJAB, HCT116 and Jurkat that express a natural level of TRAIL-R2 receptors; endogenous in cells; host or cells: HCT116
T3 sequence (O14763 56-440): as above
Description: as §3

[8] = molecular target: T4, TRAIL-R2 expressed on HCT116 cells (Homo sapiens, UniProt O14763); experiment: LigandTracer real time binding on living HCT116 cells; conditions: HCT116 cells expressing TRAIL-R2
T4 construct: we used BJAB, HCT116 and Jurkat that express a natural level of TRAIL-R2 receptors; endogenous in cells; host or cells: HCT116
T4 sequence (O14763 56-440): as above
Description: The adherent cells HCT116-TRAIL-R2-DEF and HCT116 cells were directly plated on glass slides (Ø20 mm) (10^6 cells/well). The cells in suspension (BJAB and BJAB-TRAIL-R2-DEF) were covalently adhered to glass slides coated with poly-L-lysine (0.1% v/v) (Sigma Aldrich, Saint Louis, MO, USA). The adhesion was strong enough for measurement during 10h. After 24 hours, the slides were fixed with superglue at different locations of a Petri dish, which was inserted in the LigandTracer Green instrument (Ridgeview Instrument AB, Uppsala, Sweden). An empty spot or empty glass slide fixed to the Petri dish was used to record the background signal. This set-up allowed the simultaneous monitoring of the binding of a given peptide to different cell-carrying glass slides fixed to the dish. […] The fluorescence signal is recorded over time when the slide is out of the solution, and therefore corresponds to the amount of bound peptide. […]
Double-referenced SPR binding curves sets were fitted globally using the BIAevaluation 4.1.1 (GE Healthcare Biacore) or TraceDrawer (Ridgeview Diagnostics AB, Uppsala, Sweden) softwares. The signal recorded with the LigandTracer on an empty spot or slide was subtracted from that recorded on cell-carrying slides. The resulting binding curves were analyzed by kinetic distribution analysis using the tool Interaction Map (Ridgeview Diagnostics AB, Uppsala, Sweden). […]

[9] = TRAIL-R2 surface 1, one:one interaction model
[10] = TRAIL-R2 surface 2, one:one interaction model

Compound | apoptosis induction in HCT116 cells [1] | koff [2] [s⁻¹] | kon [2] [M⁻¹ s⁻¹] | Rmax [2, 9] | Rmax [2, 10] | apoptosis induction in Jurkat cells [3] | apoptosis induction in BJAB cells [4] | cell surface binding ([5]; BJAB cells deficient for TRAIL-R2) | cell surface binding ([5]; BJAB cells expressing TRAIL-R2) | fluorescent signal reached ([5]; BJAB cells that expressed TRAIL-R2, 10, 30 and (f1d) 90 nM) | binding by flow cytometry ([6]; BJAB cells deficient for TRAIL-R2, peptide 1 µM) | binding by flow cytometry ([6]; BJAB cells expressing TRAIL-R2, peptide 1 µM) | binding by flow cytometry ([7]; HCT116 cells deficient for TRAIL-R2, peptide 1 µM) | binding by flow cytometry ([7]; HCT116 cells expressing TRAIL-R2, peptide 1 µM) | cell surface binding [8]
CC[C@H](C)[C@@H]1NC(=O)[C@H](CCCNC(=N)N)NC(=O)[C@H](CC(N)=O)NC(=O)[C@H](CC(=O)O)NC(=O)[C@H](CC(C)C)NC(=O)[C@@H](NC(=O)[C@H](CC(=O)O)NC(=O)[C@H](Cc2c[nH]c3ccccc23)NC(C)=O)CSSC[C@@H](C(=O)N[C@H](C(=O)N[C@@H](CCCCNC(=O)CCC(N)CCC(=O)NCCCC[C@H](NC(=O)[C@@H](NC(=O)[C@@H]2CSSC[C@H](NC(=O)[C@H](CC(=O)O)NC(=O)[C@H](Cc3c[nH]c4ccccc34)NC(C)=O)C(=O)N[C@@H](CC(C)C)C(=O)N[C@@H](CC(=O)O)C(=O)N[C@@H](CC(N)=O)C(=O)N[C@@H](CCCNC(=N)N)C(=O)N[C@@H]([C@@H](C)CC)C(=O)NCC(=O)N[C@@H](CCCNC(=N)N)C(=O)N[C@@H](CCCNC(=N)N)C(=O)N[C@@H](CCC(N)=O)C(=O)N2)C(C)C)C(=O)N[C@@H](CC(C)C)C(N)=O)C(=O)N[C@@H](CC(C)C)C(N)=O)C(C)C)NC(=O)[C@H](CCC(N)=O)NC(=O)[C@H](CCCNC(=N)N)NC(=O)[C@H](CCCNC(=N)N)NC(=O)CNC1=O (some centres unmarked) [1d] (I: Ac-WDCLDNRIGRRQCVKL-NH2 / II: Ac-WDCLDNRIGRRQCVKL-NH2; disulfide I:3-I:13, II:3-II:13; linker I:15-II:15 via X2; N-terminus and C-terminus assumed) | strong resistance | 0.0014 | 28000 | 38 | 13 | strong resistance | underwent apoptosis | – | – | – | – | – | – | – | –
CC[C@H](C)[C@@H]1NC(=O)[C@H](CCCNC(=N)N)NC(=O)[C@H](CC(N)=O)NC(=O)[C@H](CC(=O)O)NC(=O)[C@H](CC(C)C)NC(=O)[C@@H](NC(=O)[C@H](CC(=O)O)NC(=O)[C@H](Cc2c[nH]c3ccccc23)NC(C)=O)CSSC[C@@H](C(=O)N[C@H](C(=O)N[C@@H](CCCCN)C(=O)N[C@@H](CC(C)C)C(N)=O)C(C)C)NC(=O)[C@H](CCC(N)=O)NC(=O)[C@H](CCCNC(=N)N)NC(=O)[C@H](CCCNC(=N)N)NC(=O)CNC1=O [1m] (Ac-WDCLDNRIGRRQCVKL-NH2; disulfide 3-13; N-terminus and C-terminus assumed) | – | 0.0026 | 5300 | 33 | 11 | – | – | – | – | – | – | – | – | – | –
CC[C@H](C)[C@@H]1NC(=O)[C@H](CCCNC(=N)N)NC(=O)[C@H](CC(N)=O)NC(=O)[C@H](CC(=O)O)NC(=O)[C@H](CC(C)C)NC(=O)[C@@H](NC(=O)[C@H](CC(=O)O)NC(=O)[C@H](Cc2c[nH]c3ccccc23)NC(C)=O)CSSC[C@@H](C(=O)N[C@H](C(=O)N[C@@H](CCCNC(=N)N)C(=O)N[C@@H](CC(C)C)C(N)=O)C(C)C)NC(=O)[C@H](CCC(N)=O)NC(=O)[C@H](CCCNC(=N)N)NC(=O)[C@H](CCCCN)NC(=O)CNC1=O [2m] (Ac-WDCLDNRIGKRQCVRL-NH2; disulfide 3-13; N-terminus and C-terminus assumed) | – | 0.016 | 3600 | – | – | – | – | – | – | – | – | – | – | – | –
CC[C@H](C)[C@@H]1NC(=O)[C@H](CCCNC(=N)N)NC(=O)[C@H](CC(N)=O)NC(=O)[C@H](CC(=O)O)NC(=O)[C@H](CC(C)C)NC(=O)[C@@H](NC(=O)[C@H](CC(=O)O)NC(=O)[C@H](Cc2c[nH]c3ccccc23)NC(C)=O)CSSC[C@@H](C(=O)N[C@H](C(=O)N[C@@H](CCCCNC(=O)CCC(CCC(=O)NCCCC[C@H](NC(=O)[C@@H](NC(=O)[C@@H]2CSSC[C@H](NC(=O)[C@H](CC(=O)O)NC(=O)[C@H](Cc3c[nH]c4ccccc34)NC(C)=O)C(=O)N[C@@H](CC(C)C)C(=O)N[C@@H](CC(=O)O)C(=O)N[C@@H](CC(N)=O)C(=O)N[C@@H](CCCNC(=N)N)C(=O)N[C@@H]([C@@H](C)CC)C(=O)NCC(=O)N[C@@H](CCCNC(=N)N)C(=O)N[C@@H](CCCNC(=N)N)C(=O)N[C@@H](CCC(N)=O)C(=O)N2)C(C)C)C(=O)N[C@@H](CC(C)C)C(N)=O)NC(=O)CCCN(C)C(=O)c2ccccc2-c2c3ccc(=N)c(S(=O)(=O)O)c-3oc3c(S(=O)(=O)O)c(N)ccc23)C(=O)N[C@@H](CC(C)C)C(N)=O)C(C)C)NC(=O)[C@H](CCC(N)=O)NC(=O)[C@H](CCCNC(=N)N)NC(=O)[C@H](CCCNC(=N)N)NC(=O)CNC1=O (some centres unmarked) [f1d] (I: Ac-WDCLDNRIGRRQCVKL-NH2 / II: Ac-WDCLDNRIGRRQCVKL-NH2; disulfide I:3-I:13, II:3-II:13; linker I:15-II:15 via X1; N-terminus and C-terminus assumed) | scarcely induced their apoptosis | 0.0014 | 22000 | – | – | – | induced apoptosis | weak signals | strong binding | > 25 | not | bound | not | bound | bound weakly
CC[C@H](C)[C@@H]1NC(=O)[C@H](CCCNC(=N)N)NC(=O)[C@H](CC(N)=O)NC(=O)[C@H](CC(=O)O)NC(=O)[C@H](CC(C)C)NC(=O)[C@@H](NC(=O)[C@H](CC(=O)O)NC(=O)[C@H](Cc2c[nH]c3ccccc23)NC(C)=O)CSSC[C@@H](C(=O)N[C@H](C(=O)N[C@@H](CCCCNC(=O)c2ccc(C(=O)O)c(-c3c4ccc(=N)c(S(=O)(=O)O)c-4oc4c(S(=O)(=O)O)c(N)ccc34)c2)C(=O)N[C@@H](CC(C)C)C(N)=O)C(C)C)NC(=O)[C@H](CCC(N)=O)NC(=O)[C@H](CCCNC(=N)N)NC(=O)[C@H](CCCNC(=N)N)NC(=O)CNC1=O [f1m] (Ac-WDCLDNRIGRRQCVK(X3)L-NH2; disulfide 3-13; N-terminus and C-terminus assumed) | – | 0.0014 | 14000 | – | – | – | did not induce apoptosis | – | weak binding | – | – | – | – | – | –
